# Test results published in patent US5126258A (priority 1988, dated 1992).
# Experiments:
# 17G8 = assay: Hydrolysis of reactant ligands by receptor 17G8; type: biochemical, mouse; parameters: key to hydrolysis by 17G8, symbol: --: No hydrolysis observed; conditions: pH 8.0
# Protocol: (§1) ^1 Preliminary initial hydrolyses shown as the percentage of admixed
# (§2) reactant ligand consumed for catalyzed and spontaneous hydrolyses. "--" =
# (§3) No hydrolysis observed. "NT" = Not tried. All reactions were carried out
# (§4) at pH 8.0 in a 50 mM phosphate buffer unless otherwise noted. Hydrolytic
# (§5) percentages were determined by HPLC using a Hitachi model 655A12 liquid
# (§6) chromatograph with a C18 Vydac 201TP54 column, except as noted below.
# (§7) Mixtures of acetonitrile a nd water containing 0.1 percent trichloroaceti
# (§8) acid [28:72-50:50 (v/v)] were used as elutant. Hydrolyses of Compounds 5
# (§9) and 20 were assayed using fluorescence data.
# (§10) ^2 Concentrations of receptor molecules (Rec.) and reactant ligands
# (§11) (Lig.) in micromolar units, presuming a molecular weight of 150,000
# (§12) daltons for each receptor molecule.
# (§13) ^3 Reactant ligand (Lig.) used as substrate.
# (§14) ^4 Time in hours that the reaction was permitted to take place.
# (§15) ^5 Spontaneous hydrolytic percentages for the time period indicated.
# (§16) ^6 Reaction carried out at pH 7.2 in a 50 mM phosphate buffer.
# 1209 = assay: Hydrolysis of reactant ligands by receptor 12C9 (column head prints 1209); type: biochemical, mouse; parameters: key to hydrolysis by 1209, symbol: --: No hydrolysis observed; conditions: pH 8.0
# Protocol: as §1, §2, §3, §4, §5, §6, §7, §8, §9, §10, §11, §12, §13, §14, §15, §16
# 44A2 = assay: Hydrolysis of reactant ligands by receptor 44A2; type: biochemical, mouse; parameters: key to hydrolysis by 44A2, symbol: --: No hydrolysis observed; conditions: pH 8.0
# Protocol: as §1, §2, §3, §4, §5, §6, §7, §8, §9, §10, §11, §12, §13, §14, §15, §16
# 7E5 = assay: Hydrolysis of reactant ligands by receptor 7E5; type: biochemical, mouse; parameters: key to hydrolysis by 7E5, symbol: --: No hydrolysis observed; conditions: pH 8.0
# Protocol: as §1, §2, §3, §4, §5, §6, §7, §8, §9, §10, §11, §12, §13, §14, §15, §16
# 13E10 = assay: Hydrolysis of reactant ligands by receptor 13E10; type: biochemical, mouse; parameters: key to hydrolysis by 13E10, symbol: --: No hydrolysis observed; conditions: pH 8.0
# Protocol: as §1, §2, §3, §4, §5, §6, §7, §8, §9, §10, §11, §12, §13, §14, §15, §16
# 21G2 = assay: Hydrolysis of reactant ligands by receptor 21G2; type: biochemical, mouse; parameters: key to hydrolysis by 21G2, symbol: --: No hydrolysis observed; conditions: pH 8.0
# Protocol: as §1, §2, §3, §4, §5, §6, §7, §8, §9, §10, §11, §12, §13, §14, §15, §16
# 22F5 = assay: Hydrolysis of reactant ligands by receptor 22F5; type: biochemical, mouse; parameters: key to hydrolysis by 22F5, symbol: --: No hydrolysis observed; conditions: pH 8.0
# Protocol: as §1, §2, §3, §4, §5, §6, §7, §8, §9, §10, §11, §12, §13, §14, §15, §16
# [1] = test system: eight monoclonal receptors 21G2, 7E5, 37G2, 13E10, 12C9, 44A2, 17G8 and 22F5; assay: Catalyzed hydrolysis of reactant ligands by the eight QPN1 monoclonal receptors, summary; type: biochemical, mouse; conditions: pH 8.0
# Protocol: Mice were hyperimmunized with the Compound 13-KLH conjugate over a three to four week time period. Sera were assayed in an ELISA using a Compound 13-BSA conjugate bound to microtiter plate wells as the solid-phase antigen. Cloned hybridomas were also screened using that ELISA assay.
# Each of those catalyses could be inhibited by an appropriate analog-ligand. Thus, a relatively high percentage of induced monoclonal receptors was capable of catalyzing an esterolytic reaction. The reason for this relatively high percentage of useful receptors being induced is unknown, but could be due to the presence of phosphonamidate group nitrogen atom, as compared to a phosphonate oxygen atom, or to the quinoline nucleus of the analog-ligand. Those eight catalytic monoclonal receptors and the hybridomas that secrete them are identified by the laboratory designations "QPN1 7E5", "QPN1 12C9", "QPN1 13E10", "QPN1 17G8", "QPN1 21G2", "QPN1 22F5", "QPN1 37G2" and QPN1 44A2. The prefix "QPNI" is sometimes omitted herein when discussing these hybridomas and receptors.
# Amide cleavage for Compounds 14 and 15 was assayed by analyzing for the production of free aminoquinaldine or aminonaphthalene by measuring the increase in the azo dye that results from derivatizing the free aminoquinaldine or aminonapthalene with a diazotization reagent.
# Catalysis reactions were conducted by preparing a reaction admixture of 100 microliters (ul) total volume containing 5 micromolar (uM) monoclonal antibody, 50-75 uM amide reactant ligand substrate and a buffer described hereinafter. The buffer included in the above admixture varied depending upon the pH utilized as follows: pH 5, 10 […] sodium acetate, 10 mM sodium chloride; pH 7.2, 10 mM sodium phosphate, 0.15 molar (M) sodium chloride; pH 8.0; 50 mM sodium phosphate. The amide-containing substrates screened in this assay were added to the above admixture in 1 ul of a 100-fold concentrated stock solution of dimethyl formamide (DMF). Monoclonal antibody was added to the above admixture from a concentrated stock solution. The resulting admixture was placed into the well of a 96 well flat bottom microtiter plate (Costar, Cambridge, Mass.) and maintained in a moist vapor environment chamber at 23 degrees C. The production of aminoquinaldine or aminonaphthalene was then assayed as described below after 2,3,5, or 6 days.
# The aminoquinaldine or aminonapthalene product produced by the catalyzed reaction was measured by first admixing 20 ul of 5M HCl, 80 ul acetone and 10 ul 0.5% (w/v) sodium nitrite to the reaction admixture to form a second admixture and maintaining that second admixture for 3 minutes at room temperature. Thereafter, 10 ul 2.5% (w/v) ammonium sulfamate was added to form a third admixture that was maintained for 2 minutes at room temperature. A still further 10 ul of 0.5% (w/v) N-(1-napthyl)ethylenediamine dihydrochloride was added to form a fourth admixture that was then maintained for 15 minutes at room temperature. Thereafter the resulting azo dye present in the fourth admixture was measured by absorbance spectroscopy at 540 nanometers (nm) for aminoquinaldine using a Model EL 309 Automated Microplate Reader (Bio-Tek Instruments, Winooski, Vt.).
# 37G2 = assay: Hydrolysis of reactant ligands by receptor 37G2; type: biochemical, mouse; parameters: key to hydrolysis by 37G2, symbol: --: No hydrolysis observed; conditions: pH 8.0
# Protocol: as §1, §2, §3, §4, §5, §6, §7, §8, §9, §10, §11, §12, §13, §14, §15, §16
# [2] = Spontaneous (uncatalyzed, background) hydrolysis; type: physicochemical; parameters: key to Spon. (spontaneous hydrolysis), symbol: --: No hydrolysis observed
# Protocol: The practical range of pH for the assay is limited by the rapid spontaneous rate of hydrolysis of an ester Compound 5 above pH 8.0. Initially, the ester was used at a concentration that was about four-fold greater than that of the protein, and the mixture was incubated at pH 7.2 for 10 minutes. Any change in fluorescence above background was noted.
# The lack of spectroscopic distinction between such esters and their hydrolysis products recommended a chromatographic analysis of the process. Referring to FIG. 3, a mixture of Compound 7 (5 uM) and the monoclonal antibody from hybridoma P3 6D4 (0.1 uM) in phosphate buffer (50 mM, pH 8.0) was analyzed over time by high performance liquid chromatography (HPLC). The accelerated hydrolysis of the ester was apparent from the decrease of its peak and the concurrent increase in two new peaks that correspond with the expected products. Under these conditions, the ester is completely consumed in 60-80 minutes during which time the background rate accounts for about 12 to 16 percent hydrolysis. The chromatographic profile is the same as that produced by treatment with hog liver esterase.
# ^c The rate constants were determined spectrophotometrically (at 245
# nm) by measuring initial rates at five concentrations of ester.
# as §1, §2, §3, §4, §5, §6, §7, §8, §9, §15
# Reaction kinetics were studied using three reactant ligands as substrates for monoclonal receptors 37G2 and 22F5. Data from initial rates were consistent with Michaelis-Menten reaction mechanism for a usual enzyme-substrate system. Initial rates were followed using at 271 nm using a U.V.-visible spectorphotometer for Compound 17, and a fluorescence spectrometer for Compounds 5 and 20, using an excitation wavelength of 355 nm and an emission wavelength of 455 nm for both compounds.
# [3] = 19: 2/5 uM, 21: 5/10 uM receptor/ligand
# [4] = receptor/ligand uM, time h: 17 1/10, 2, 18 2/10, 24, 20 2/10, 0.33, 5 1/5, 0.33, 22 5/10, 3.5, preliminary
"hydrolysis by 17G8, symbol (17G8; [3])","hydrolysis by 1209, symbol 1209; [3]","hydrolysis by 44A2, symbol (44A2; [3])","hydrolysis by 7E5, symbol (7E5; [3])","hydrolysis by 13E10, symbol (13E10; [3])","hydrolysis by 21G2, symbol (21G2; [3])","hydrolysis by 22F5, symbol (22F5; [3])","hydrolysis by 37G2, symbol (37G2; [3])","hydrolysis by 17G8 (17G8; receptor/ligand uM, time h: 18 2/10, 24, 20 2/10, 0.33, 5 1/5, 0.33, 22 5/10, 3.5, preliminary)",hydrolysis by 1209 1209; [4],hydrolysis by 44A2 (44A2; [4]),hydrolysis by 7E5 (7E5; [4]),hydrolysis by 13E10 (13E10; [4]),hydrolysis by 21G2 (21G2; [4]),hydrolysis by 22F5 (22F5; [4]),hydrolysis by 37G2 (37G2; [4]),"Spon. (spontaneous hydrolysis) ([2]; pH 8.0, 50 mM phosphate, time (h): 17 2, 18 24, 20 0.33, 5 0.33, 22 3.5)",SMILES,receptors (of eight) that catalyzed hydrolysis of the compound [1],"Spon. (spontaneous hydrolysis), symbol ([2]; pH 8.0)"
--,--,--,--,--,--,--,--,,,,,,,,,,CC(=O)Nc1ccc(CC(=O)Nc2cccc3ccccc23)cc1 [Compound 15],none of the receptors catalyzed hydrolysis,--
,,,,,,,,22 percentage of reactant ligand,12 percentage of reactant ligand,24 percentage of reactant ligand,9 percentage of reactant ligand,14 percentage of reactant ligand,19 percentage of reactant ligand,26 percentage of reactant ligand,45 percentage of reactant ligand,5 percentage of reactant ligand,CC(=O)Nc1ccc(CC(=O)Oc2ccccc2)cc1 [Compound 22],,
